Results taken from patent EP2047849A1 (KTB Tumorforschungsgesellschaft mbH, priority 2007, dated 2009).
Positions count from the first letter of the chain named.

Legend:
Experiment in all cases: 33PanQinase Activity Assay (in vitro protein kinase activity assay)
Assay type in all cases: biochemical
Settings in all cases: recombinant purified kinase, 1 µM [γ-33P]-ATP
FAK = biological target: T1, FAK (Homo sapiens, UniProt Q05397)
T1 construct: made in house; host or cells: Sf9 insect cells (baculovirus)
Experimental: (§1) Inhibition of protein kinases by compounds was measured in proprietary protein kinase activity assay (^33PanQinase® Activity Assay) using recombinant purified protein kinases. All protein kinases were expressed in Sf9 insect cells as recombinant GST-fusion proteins or His-tagged proteins by means of the baculovirus expression system. All kinases were produced from human cDNAs. Kinases were purified by affinity chromatography using either GSH-agarose (Sigma) or Ni-NTH-agarose (Qiagen). The purity of the protein kinases was examined by SDS-PAGE/Coomassie staining. Activity was measured by determination of the incorporation of radio labelled phosphate into a substrate. The reaction cocktails for all enzymes contained 60 mM HEPES-NaOH, 10 mM Tris/HCl, pH 7.5, 20 mM NaCl, 3 mM MgCl2, 3 mM MnCl2, 3 µM Na-orthovanadate, 2 mM DTT, 4% glycerol, 1 µM [γ-^33P]-ATP (approx. 6 x 10^5 cpm per well), protein kinase , and substrate. Table 1: Protein kinases inhibited with high potency in vitro by compound PQ-012, PQ-013, PQ-014, PQ-016, PQ-041, PQ-042.

FLT3 D835Y = biological target: T2, FLT3 D835Y (Homo sapiens, UniProt P36888, D835Y)
T2 construct: made in house; host or cells: Sf9 insect cells (baculovirus)
T2 sequence (P36888 27-993 D835Y): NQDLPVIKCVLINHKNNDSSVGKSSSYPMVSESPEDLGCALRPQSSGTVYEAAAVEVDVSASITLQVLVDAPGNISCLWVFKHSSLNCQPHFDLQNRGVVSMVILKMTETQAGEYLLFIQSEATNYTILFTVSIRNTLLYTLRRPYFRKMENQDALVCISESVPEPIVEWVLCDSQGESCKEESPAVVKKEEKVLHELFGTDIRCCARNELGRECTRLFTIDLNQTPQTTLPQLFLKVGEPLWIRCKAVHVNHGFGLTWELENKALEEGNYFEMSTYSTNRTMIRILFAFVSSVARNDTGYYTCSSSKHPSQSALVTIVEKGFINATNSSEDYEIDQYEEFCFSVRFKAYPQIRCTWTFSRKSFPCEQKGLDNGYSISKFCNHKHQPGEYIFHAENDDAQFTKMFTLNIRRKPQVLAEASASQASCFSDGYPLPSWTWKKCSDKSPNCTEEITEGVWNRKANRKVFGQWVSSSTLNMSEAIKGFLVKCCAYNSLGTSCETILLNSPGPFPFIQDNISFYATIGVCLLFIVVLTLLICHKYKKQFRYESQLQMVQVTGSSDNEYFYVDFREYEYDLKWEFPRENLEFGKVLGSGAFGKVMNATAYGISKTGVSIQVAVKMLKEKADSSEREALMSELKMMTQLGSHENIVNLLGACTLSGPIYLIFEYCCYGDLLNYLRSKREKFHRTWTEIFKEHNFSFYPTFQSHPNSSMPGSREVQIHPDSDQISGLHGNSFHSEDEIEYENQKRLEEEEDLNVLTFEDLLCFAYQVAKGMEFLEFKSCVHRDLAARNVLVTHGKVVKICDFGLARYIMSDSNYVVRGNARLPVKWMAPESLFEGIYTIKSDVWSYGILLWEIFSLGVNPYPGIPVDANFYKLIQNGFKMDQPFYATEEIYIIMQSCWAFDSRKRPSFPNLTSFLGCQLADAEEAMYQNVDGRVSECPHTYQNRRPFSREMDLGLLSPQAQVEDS
Experimental: as §1

PDGFR-beta = biological target: T3, PDGFR-beta (Homo sapiens, UniProt P09619)
T3 construct: made in house; host or cells: Sf9 insect cells (baculovirus)
Experimental: as §1

PDGFR-alpha = biological target: T4, PDGFR-alpha (Homo sapiens, UniProt P16234)
T4 construct: made in house; host or cells: Sf9 insect cells (baculovirus)
Experimental: as §1

CHK2 = biological target: T5, CHK2 (Homo sapiens, UniProt O96017)
T5 construct: made in house; host or cells: Sf9 insect cells (baculovirus)
Experimental: as §1

FLT3 wt = biological target: T6, FLT3 wt (Homo sapiens, UniProt P36888)
T6 construct: made in house; host or cells: Sf9 insect cells (baculovirus)
T6 sequence (P36888 27-993): T2 sequence (P36888 27-993 D835Y) with Y809D
Experimental: as §1

RSK3 = biological target: T7, RSK3 (Homo sapiens, UniProt Q15349)
T7 construct: made in house; host or cells: Sf9 insect cells (baculovirus)
Experimental: as §1

RSK1 = biological target: T8, RSK1 (Homo sapiens, UniProt Q15418)
T8 construct: made in house; host or cells: Sf9 insect cells (baculovirus)
Experimental: as §1

PLK4 = biological target: T9, PLK4 (Homo sapiens, UniProt O00444)
T9 construct: made in house; host or cells: Sf9 insect cells (baculovirus)
T9 sequence (O00444 1-970): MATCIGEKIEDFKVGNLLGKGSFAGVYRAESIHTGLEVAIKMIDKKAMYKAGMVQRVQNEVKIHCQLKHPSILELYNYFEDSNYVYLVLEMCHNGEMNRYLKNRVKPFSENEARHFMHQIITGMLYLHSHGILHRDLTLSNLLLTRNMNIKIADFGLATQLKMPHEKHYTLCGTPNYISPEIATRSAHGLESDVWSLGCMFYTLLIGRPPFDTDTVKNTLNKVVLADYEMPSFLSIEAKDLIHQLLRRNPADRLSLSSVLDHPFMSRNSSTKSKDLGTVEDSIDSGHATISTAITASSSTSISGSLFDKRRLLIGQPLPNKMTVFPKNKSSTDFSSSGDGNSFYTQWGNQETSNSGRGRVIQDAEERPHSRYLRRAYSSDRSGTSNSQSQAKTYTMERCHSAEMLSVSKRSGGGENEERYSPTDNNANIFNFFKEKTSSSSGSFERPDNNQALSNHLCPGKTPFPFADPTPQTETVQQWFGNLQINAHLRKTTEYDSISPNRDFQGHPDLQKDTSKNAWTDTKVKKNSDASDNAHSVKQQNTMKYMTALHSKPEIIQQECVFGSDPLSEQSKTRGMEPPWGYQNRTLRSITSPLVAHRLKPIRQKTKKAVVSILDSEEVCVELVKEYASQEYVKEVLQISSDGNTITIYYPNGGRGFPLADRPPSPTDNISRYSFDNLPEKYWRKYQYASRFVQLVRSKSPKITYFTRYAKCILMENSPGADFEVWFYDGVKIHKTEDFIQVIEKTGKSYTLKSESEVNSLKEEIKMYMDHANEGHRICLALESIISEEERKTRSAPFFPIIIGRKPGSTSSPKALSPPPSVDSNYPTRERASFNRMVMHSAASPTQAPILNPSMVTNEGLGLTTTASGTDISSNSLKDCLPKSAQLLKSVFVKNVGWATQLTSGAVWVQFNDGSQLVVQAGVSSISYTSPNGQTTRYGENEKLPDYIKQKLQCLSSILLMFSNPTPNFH
Experimental: as §1

RSK4 = biological target: T10, RSK4 (Homo sapiens, UniProt Q9UK32)
T10 construct: made in house; host or cells: Sf9 insect cells (baculovirus)
Experimental: as §1

MAP4K4 = biological target: T11, MAP4K4 (Homo sapiens, UniProt O95819)
T11 construct: made in house; host or cells: Sf9 insect cells (baculovirus)
Experimental: as §1

RSK2 = biological target: T12, RSK2 (Homo sapiens, UniProt P51812)
T12 construct: made in house; host or cells: Sf9 insect cells (baculovirus)
Experimental: as §1

PRKG2 = biological target: T13, PRKG2 (Homo sapiens, UniProt Q13237)
T13 construct: made in house; host or cells: Sf9 insect cells (baculovirus)
T13 sequence (Q13237 1-762): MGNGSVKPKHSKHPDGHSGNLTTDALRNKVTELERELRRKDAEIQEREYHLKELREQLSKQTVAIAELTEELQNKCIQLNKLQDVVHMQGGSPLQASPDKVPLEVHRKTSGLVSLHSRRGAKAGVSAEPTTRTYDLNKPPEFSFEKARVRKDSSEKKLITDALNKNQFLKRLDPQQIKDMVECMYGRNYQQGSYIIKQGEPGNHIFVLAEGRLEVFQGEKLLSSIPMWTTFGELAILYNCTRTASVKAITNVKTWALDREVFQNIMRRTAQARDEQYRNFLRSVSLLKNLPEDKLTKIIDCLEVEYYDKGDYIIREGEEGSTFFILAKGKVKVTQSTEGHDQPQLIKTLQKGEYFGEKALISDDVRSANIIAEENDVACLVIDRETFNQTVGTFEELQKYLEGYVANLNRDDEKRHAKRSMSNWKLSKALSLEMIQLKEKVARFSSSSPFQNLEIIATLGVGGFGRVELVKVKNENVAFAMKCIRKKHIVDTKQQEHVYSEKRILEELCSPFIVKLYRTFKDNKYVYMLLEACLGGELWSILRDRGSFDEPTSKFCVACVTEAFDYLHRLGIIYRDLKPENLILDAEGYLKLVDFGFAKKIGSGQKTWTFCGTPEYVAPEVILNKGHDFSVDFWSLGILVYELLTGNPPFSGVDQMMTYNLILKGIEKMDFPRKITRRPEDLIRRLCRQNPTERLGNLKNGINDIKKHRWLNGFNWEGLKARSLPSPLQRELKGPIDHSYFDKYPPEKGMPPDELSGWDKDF
Experimental: as §1

Aurora B = biological target: T14, Aurora B (Homo sapiens, UniProt Q96GD4)
T14 construct: made in house; host or cells: Sf9 insect cells (baculovirus)
Experimental: as §1

T1 sequence (Q05397 whole entry): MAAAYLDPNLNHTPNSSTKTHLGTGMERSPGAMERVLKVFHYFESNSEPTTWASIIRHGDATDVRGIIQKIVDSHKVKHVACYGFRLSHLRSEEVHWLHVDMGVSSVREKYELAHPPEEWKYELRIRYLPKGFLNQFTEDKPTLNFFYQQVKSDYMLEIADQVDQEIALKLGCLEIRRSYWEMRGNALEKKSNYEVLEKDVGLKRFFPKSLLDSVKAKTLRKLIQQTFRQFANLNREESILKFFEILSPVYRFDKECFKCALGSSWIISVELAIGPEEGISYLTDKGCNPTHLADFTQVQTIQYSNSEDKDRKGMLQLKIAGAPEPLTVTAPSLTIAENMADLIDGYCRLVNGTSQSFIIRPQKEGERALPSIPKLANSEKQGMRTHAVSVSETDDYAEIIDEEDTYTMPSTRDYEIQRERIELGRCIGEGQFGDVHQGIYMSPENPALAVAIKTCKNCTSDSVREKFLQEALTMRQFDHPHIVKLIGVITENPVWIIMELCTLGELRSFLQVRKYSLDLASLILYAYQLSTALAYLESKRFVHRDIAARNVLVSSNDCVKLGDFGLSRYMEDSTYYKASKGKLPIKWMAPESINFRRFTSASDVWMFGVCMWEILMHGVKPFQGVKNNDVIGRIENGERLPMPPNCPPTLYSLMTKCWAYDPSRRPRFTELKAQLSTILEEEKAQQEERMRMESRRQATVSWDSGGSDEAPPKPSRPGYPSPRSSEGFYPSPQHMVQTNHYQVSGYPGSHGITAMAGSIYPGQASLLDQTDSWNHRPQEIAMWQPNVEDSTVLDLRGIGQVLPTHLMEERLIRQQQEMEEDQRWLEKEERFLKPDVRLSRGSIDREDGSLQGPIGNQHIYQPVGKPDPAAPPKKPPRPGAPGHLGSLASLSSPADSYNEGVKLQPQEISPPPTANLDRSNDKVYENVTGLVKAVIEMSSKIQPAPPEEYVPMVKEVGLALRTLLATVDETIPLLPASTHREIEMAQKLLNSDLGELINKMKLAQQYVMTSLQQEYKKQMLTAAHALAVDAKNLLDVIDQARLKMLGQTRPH
T4 sequence (P16234 24-1089): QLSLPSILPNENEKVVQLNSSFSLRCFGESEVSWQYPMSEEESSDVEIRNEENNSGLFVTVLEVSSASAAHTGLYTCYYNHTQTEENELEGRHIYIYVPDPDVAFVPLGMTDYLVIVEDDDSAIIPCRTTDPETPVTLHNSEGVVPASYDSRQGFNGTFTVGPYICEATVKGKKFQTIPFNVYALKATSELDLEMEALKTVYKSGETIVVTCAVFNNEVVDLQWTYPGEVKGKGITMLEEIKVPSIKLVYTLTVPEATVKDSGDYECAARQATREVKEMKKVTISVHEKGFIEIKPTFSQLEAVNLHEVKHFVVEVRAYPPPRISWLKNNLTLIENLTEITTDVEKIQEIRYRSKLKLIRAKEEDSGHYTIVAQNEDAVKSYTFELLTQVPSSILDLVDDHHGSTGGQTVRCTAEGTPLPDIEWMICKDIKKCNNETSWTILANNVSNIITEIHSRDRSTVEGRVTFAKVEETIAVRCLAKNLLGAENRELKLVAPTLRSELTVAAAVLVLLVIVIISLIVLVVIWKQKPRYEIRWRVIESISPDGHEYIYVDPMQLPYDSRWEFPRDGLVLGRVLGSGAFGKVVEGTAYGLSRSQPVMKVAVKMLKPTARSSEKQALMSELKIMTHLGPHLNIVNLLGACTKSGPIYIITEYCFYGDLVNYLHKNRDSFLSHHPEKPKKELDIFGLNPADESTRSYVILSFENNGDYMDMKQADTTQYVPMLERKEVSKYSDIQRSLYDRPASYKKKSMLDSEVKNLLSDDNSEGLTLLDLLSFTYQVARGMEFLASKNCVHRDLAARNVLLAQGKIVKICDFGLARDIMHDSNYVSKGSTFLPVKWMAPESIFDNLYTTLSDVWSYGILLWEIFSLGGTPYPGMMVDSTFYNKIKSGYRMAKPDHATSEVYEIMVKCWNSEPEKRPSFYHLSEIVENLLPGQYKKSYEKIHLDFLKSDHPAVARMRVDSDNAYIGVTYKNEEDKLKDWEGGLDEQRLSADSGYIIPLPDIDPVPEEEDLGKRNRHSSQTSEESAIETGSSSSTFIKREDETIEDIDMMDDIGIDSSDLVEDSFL
T5 sequence (O96017 whole entry): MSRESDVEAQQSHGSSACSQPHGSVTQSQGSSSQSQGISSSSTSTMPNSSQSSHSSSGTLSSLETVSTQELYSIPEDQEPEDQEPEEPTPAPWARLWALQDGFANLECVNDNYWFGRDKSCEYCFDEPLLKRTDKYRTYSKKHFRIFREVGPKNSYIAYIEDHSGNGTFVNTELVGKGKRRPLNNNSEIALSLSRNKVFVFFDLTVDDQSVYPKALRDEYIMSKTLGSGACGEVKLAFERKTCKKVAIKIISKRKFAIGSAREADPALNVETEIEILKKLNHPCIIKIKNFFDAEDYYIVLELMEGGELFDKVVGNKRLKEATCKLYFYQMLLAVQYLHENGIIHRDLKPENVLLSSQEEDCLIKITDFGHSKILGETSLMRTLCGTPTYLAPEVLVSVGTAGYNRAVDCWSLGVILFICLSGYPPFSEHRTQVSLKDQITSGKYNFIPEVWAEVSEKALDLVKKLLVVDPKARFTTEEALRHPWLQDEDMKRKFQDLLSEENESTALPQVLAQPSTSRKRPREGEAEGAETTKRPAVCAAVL
T3 sequence (P09619 33-1106): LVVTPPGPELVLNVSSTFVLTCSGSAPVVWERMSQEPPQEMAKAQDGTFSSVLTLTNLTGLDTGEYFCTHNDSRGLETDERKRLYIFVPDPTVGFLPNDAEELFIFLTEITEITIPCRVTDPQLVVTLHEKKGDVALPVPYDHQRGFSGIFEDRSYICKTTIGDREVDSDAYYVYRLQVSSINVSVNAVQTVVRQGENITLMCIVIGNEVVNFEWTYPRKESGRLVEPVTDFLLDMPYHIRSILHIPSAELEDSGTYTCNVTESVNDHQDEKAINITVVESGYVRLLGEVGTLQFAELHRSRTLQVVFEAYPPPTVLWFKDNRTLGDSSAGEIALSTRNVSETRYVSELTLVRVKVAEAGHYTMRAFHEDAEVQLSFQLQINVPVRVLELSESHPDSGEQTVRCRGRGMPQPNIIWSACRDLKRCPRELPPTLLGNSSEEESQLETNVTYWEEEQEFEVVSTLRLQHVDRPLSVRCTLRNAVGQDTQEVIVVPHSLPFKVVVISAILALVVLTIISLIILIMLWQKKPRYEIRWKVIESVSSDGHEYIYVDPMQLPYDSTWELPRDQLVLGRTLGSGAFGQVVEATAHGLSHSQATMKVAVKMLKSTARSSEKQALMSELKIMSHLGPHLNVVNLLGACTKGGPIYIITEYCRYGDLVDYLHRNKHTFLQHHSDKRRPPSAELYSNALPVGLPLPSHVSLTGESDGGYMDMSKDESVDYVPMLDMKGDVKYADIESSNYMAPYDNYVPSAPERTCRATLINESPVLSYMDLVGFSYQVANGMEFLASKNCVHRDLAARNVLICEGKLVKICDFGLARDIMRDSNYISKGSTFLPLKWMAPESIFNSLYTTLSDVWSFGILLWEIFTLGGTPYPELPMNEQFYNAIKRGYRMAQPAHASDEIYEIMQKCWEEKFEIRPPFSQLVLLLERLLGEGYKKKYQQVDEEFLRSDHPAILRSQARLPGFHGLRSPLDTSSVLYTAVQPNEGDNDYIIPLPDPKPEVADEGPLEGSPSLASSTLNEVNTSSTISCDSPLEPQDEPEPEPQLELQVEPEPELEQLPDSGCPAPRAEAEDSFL
T11 sequence (O95819 whole entry): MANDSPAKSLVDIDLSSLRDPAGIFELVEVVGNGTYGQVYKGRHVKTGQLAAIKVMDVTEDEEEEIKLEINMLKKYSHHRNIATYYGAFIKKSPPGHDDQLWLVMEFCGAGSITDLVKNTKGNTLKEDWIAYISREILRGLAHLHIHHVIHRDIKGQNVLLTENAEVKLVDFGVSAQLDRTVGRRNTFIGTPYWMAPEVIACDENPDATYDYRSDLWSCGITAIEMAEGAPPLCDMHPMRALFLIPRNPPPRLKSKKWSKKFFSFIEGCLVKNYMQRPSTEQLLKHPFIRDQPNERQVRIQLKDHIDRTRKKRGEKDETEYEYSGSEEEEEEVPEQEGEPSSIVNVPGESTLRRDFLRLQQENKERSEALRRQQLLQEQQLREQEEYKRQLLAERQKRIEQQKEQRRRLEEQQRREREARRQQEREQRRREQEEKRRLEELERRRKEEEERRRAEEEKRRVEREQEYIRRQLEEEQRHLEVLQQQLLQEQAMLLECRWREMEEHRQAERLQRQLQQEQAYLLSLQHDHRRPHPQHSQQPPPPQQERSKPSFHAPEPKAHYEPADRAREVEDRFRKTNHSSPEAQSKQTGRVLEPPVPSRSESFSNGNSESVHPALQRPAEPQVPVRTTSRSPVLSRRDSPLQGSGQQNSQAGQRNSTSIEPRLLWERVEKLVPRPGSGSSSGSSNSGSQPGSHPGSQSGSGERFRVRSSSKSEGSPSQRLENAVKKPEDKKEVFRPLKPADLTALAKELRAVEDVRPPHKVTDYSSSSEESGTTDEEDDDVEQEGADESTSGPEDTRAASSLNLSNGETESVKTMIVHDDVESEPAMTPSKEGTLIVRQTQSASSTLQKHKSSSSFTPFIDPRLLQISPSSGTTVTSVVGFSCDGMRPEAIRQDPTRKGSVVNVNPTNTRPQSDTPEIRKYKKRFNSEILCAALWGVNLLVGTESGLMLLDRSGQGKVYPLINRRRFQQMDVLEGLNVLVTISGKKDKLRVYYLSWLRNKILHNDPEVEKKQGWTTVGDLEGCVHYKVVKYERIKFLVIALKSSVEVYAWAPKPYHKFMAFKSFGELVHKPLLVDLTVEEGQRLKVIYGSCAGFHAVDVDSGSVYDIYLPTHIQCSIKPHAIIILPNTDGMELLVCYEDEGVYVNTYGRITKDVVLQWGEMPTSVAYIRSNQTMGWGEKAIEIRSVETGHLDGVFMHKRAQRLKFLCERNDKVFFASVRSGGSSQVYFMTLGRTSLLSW

SMILES	IC50 (FAK) [nM]	IC50 (FLT3 D835Y) [nM]	IC50 (PDGFR-beta) [nM]	IC50 (PDGFR-alpha) [nM]	IC50 (CHK2) [nM]	IC50 (FLT3 wt) [nM]	IC50 (RSK3) [nM]	IC50 (RSK1) [nM]	IC50 (PLK4) [nM]	IC50 (RSK4) [nM]	IC50 (MAP4K4) [nM]	IC50 (RSK2) [nM]	IC50 (PRKG2) [nM]	IC50 (Aurora B) [nM]
CN(C)CC(O)Cn1c2ccc(O)cc2c2c3c(c4c5cc(O)ccc5n(C)c4c21)C(=O)NC3=O (racemic)	1000	64	700	2000	22000	110								
CN(C)CCCn1c2ccc(O)cc2c2c3c(c4c5cc(O)ccc5n(C)c4c21)C(=O)NC3=O [PQ-012, 12-(3-Dimethylaminopropyl)-6,7,12,13-tetrahydro-3,9-dihydroxy-12-methyl-5,7 dioxo-5H-indolo[2,3-a] pyrrolo [3,4-c]-carbazole]	14	< 3	< 3	< 3	23	< 3								
COc1ccc2[nH]c3c(c4c(c5c6cc(OC)ccc6n(C)c35)C(=O)NC4=O)c2c1 [PQ-013, 6,7,12,13-Tetrahydro-3,9-dimethoxy-12-methyl-5,7 dioxo-5H-indolo [2,3-a] pyrrolo [3,4-c]-carbazole]	36000	< 3	19	10	40	4.6	170	23	180	78	35	430	67	210
COc1ccc2c(c1)c1c3c(c4c5ccccc5n(C)c4c1n2CCC#N)C(=O)NC3=O [PQ-014, 13-(2-Cyanoethyl)-6,7,12,13-tetrahydro-3-methoxy-12-methyl-5,7 dioxo-5H-indolo[2,3-a] pyrrolo [3,4-c]-carbazole]	1200	3.5	130	110	2100	4.6								
NC(=O)CCn1c2ccccc2c2c3c(c4c5ccccc5[nH]c4c21)C(=O)NC3=O [PQ-041, 12-(2-Carbamidoethyl)-6,7,12,13-tetrahydro-5,1 dioxo-5H-indolo[2,3-a] pyrrolo [3,4-c]-carbazole]	2400	3.9	150	130	740	5.6								
Cn1c2ccccc2c2c3c(c4c5ccccc5[nH]c4c21)C(=O)NC3=O [PQ-042, 6,7,12,13-Tetrahydro-12-methyl-5,7 dioxo-5H-indolo [2,3-a] pyrrolo [3,4-c]-carbazole]	> 10000	68	> 10000	> 10000	> 10000	380								
